Tests used:
Format in all cases: in vivo
[1] = test system: Oryza sativa (ORYSA); settings: crop plant compatibility, 80 g/ha, effect in comparison to untreated controls
Summary of the method: (§1)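 Greenhouse crops in sandy loam sprayed post-emergence at the one-leaf stage, 2–3 weeks after sowing, with WP or EC formulations in water plus 0.5% additive at 600 l/ha. Damage rated visually about 3 weeks later versus untreated controls (0% = like control, 100% = dead); suffixes a–c denote different doses.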

[2] = test system: Lolium rigidum (LOLRI); assay: Post-emergence herbicidal action against LOLRI
Summary of the method: (§2)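 Rates were 320 g/ha or below, applied as aqueous WP/EC spray with 0.5% additive (600 l/ha) onto one-leaf-stage plants. About 3 weeks later in the greenhouse, damage was scored visually against untreated plants on a 0–100% scale, where 100% means plants died.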

[3] = test system: Pharbitis purpurea (PHBPU); assay: Post-emergence herbicidal action against PHBPU
Summary of the method: as §2

[4] = test system: Amaranthus retroflexus (AMARE); assay: Post-emergence herbicidal action against AMARE
Summary of the method: as §2

[5] = test system: Alopecurus myosuroides (ALOMY); assay: Post-emergence herbicidal action against ALOMY; settings: visual rating about 3 weeks after treatment vs untreated controls (100% = plants have died, 0% = like control plants)
Summary of the method: as §2

[6] = test system: Abutilon theophrasti (ABUTH); assay: Post-emergence herbicidal action against ABUTH; settings: visual rating about 3 weeks after treatment vs untreated controls (100% = plants have died, 0% = like control plants)
Summary of the method: as §2

[7] = test system: Verconica persica (VERPE); assay: Pre-emergence herbicidal action against VERPE
Summary of the method: (§3)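 Greenhouse pot trial: seeds sown, soil-covered, sprayed before emergence with compound in water (0.5% additive; 600 l/ha; ≤320 g/ha). Scoring visual, ~3 weeks, 0–100% scale vs untreated.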

[8] = test system: Alopecurus myosuroides (ALOMY); assay: Pre-emergence herbicidal action against ALOMY; settings: scored visually after about 3 weeks, 100% = plants have died
Summary of the method: as §3

[9] = test system: Oryza sativa (ORYSA); settings: pre-emergence, 80 g/ha, crop plant compatibility, in comparison to untreated controls
Summary of the method: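 Scoring: visual, % of untreated control, about 3 weeks after a pre-emergence application to the soil surface. Application used WP or EC formulations diluted in water with 0.5% additive at 600 l/ha; dosage levels are marked by suffixes a, b and c.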

[10] = test system: Setaria viridis (SETVI); assay: Post-emergence herbicidal action against SETVI; settings: dosage 320 g/ha
Summary of the method: as §2

[11] = test system: Avena fatua (AVEFA); assay: Post-emergence herbicidal action against AVEFA; settings: visual rating about 3 weeks after treatment
Summary of the method: as §2

[12] = test system: Viola tricolor (VIOTR); assay: Post-emergence herbicidal action against VIOTR
Summary of the method: as §2

[13] = test system: Echinochloa crus-galli (ECHCG); assay: Post-emergence herbicidal action against ECHCG
Summary of the method: as §2

[14] = test system: Pharbitis purpurea (PHBPU); assay: Pre-emergence herbicidal action against PHBPU
Summary of the method: as §3

[15] = test system: Lolium rigidum (LOLRI); assay: Pre-emergence herbicidal action against LOLRI
Summary of the method: as §3

[16] = test system: Polygonum convolvulus (POLCO); assay: Pre-emergence herbicidal action against POLCO
Summary of the method: as §3

[17] = test system: Avena fatua (AVEFA); assay: Pre-emergence herbicidal action against AVEFA; settings: 320 g/ha, visual scoring after about 3 weeks vs untreated controls
Summary of the method: as §3

[18] = test system: Amaranthus retroflexus (AMARE); assay: Pre-emergence herbicidal action against AMARE; settings: visual scoring after about 3 weeks vs untreated controls
Summary of the method: as §3

[19] = test system: Matricaria inodora (MATIN); assay: Pre-emergence herbicidal action against MATIN
Summary of the method: as §3

[20] = test system: Polygonum convolvulus (POLCO); assay: Post-emergence herbicidal action against POLCO
Summary of the method: as §2

[21] = test system: Verconica persica (VERPE); assay: Post-emergence herbicidal action against VERPE
Summary of the method: as §2

[22] = test system: Viola tricolor (VIOTR); assay: Pre-emergence herbicidal action against VIOTR
Summary of the method: as §3

[23] = test system: Setaria viridis (SETVI); assay: Pre-emergence herbicidal action against SETVI
Summary of the method: as §3

[24] = test system: Echinochloa crus-galli (ECHCG); assay: Pre-emergence herbicidal action against ECHCG
Summary of the method: as §3

[25] = test system: Matricaria inodora (MATIN); assay: Post-emergence herbicidal action against MATIN; settings: dosage 320 g/ha
Summary of the method: as §2

[26] = test system: Zea mays (ZEAMX); settings: crop plant compatibility, 80 g/ha, effect vs untreated controls
Summary of the method: as §1

[27] = 320 g/ha, visual rating about 3 weeks after treatment

CCOC(=O)[C@@H](C)Oc1nn(-c2nc(F)ccc2F)c(-c2ccc(F)nc2)c1Br [Example I-336]
80%: Post-emergence action against LOLRI in % ([2]; dosage 80 g/ha) | Post-emergence action against LOLRI in % ([2]; dosage 320 g/ha) | Post-emergence action against AMARE in % [4, 27] | Post-emergence action against ABUTH in % ([6]; 320 g/ha) | Pre-emergence action against VERPE in % ([7]; dosage 80 g/ha) | Pre-emergence action against ALOMY ([8]; 80 g/ha) | Post-emergence action against SETVI in % [10] | Post-emergence action against AVEFA in % ([11]; 80 g/ha) | Post-emergence action against VIOTR in % ([12]; 320 g/ha) | Post-emergence action against ECHCG in % ([13]; dosage 80 g/ha) | Post-emergence action against ECHCG in % ([13]; dosage 320 g/ha) | Pre-emergence action against PHBPU in % ([14]; dosage 320 g/ha) | Pre-emergence action against LOLRI in % ([15]; dosage 80 g/ha) | Pre-emergence action against POLCO in % ([16]; dosage 80 g/ha) | Pre-emergence action against MATIN in % ([19]; dosage 80 g/ha) | Post-emergence action against POLCO in % ([20]; dosage 320 g/ha) | Post-emergence action against VERPE in % ([21]; dosage 80 g/ha) | Pre-emergence action against ECHCG in % ([24]; dosage 80 g/ha)
20%: Post-emergence action against ORYSA in % [1] | Pre-emergence action against ORYSA in % [9]
100%: Post-emergence action against PHBPU in % ([3]; dosage 320 g/ha) | Pre-emergence action against ALOMY ([8]; 320 g/ha) | Pre-emergence action against LOLRI in % ([15]; dosage 320 g/ha) | Pre-emergence action against AMARE in % ([18]; 320 g/ha) | Pre-emergence action against VIOTR in % ([22]; 320 g/ha, Viola tricolor) | Pre-emergence action against SETVI in % ([23]; dosage 320 g/ha) | Pre-emergence action against ECHCG in % ([24]; dosage 320 g/ha)
90%: Post-emergence action against PHBPU in % ([3]; dosage 80 g/ha) | Post-emergence action against ALOMY in % ([5]; 80 g/ha) | Post-emergence action against ALOMY in % ([5]; 320 g/ha) | Pre-emergence action against VERPE in % ([7]; dosage 320 g/ha) | Post-emergence action against AVEFA in % ([11]; 320 g/ha) | Pre-emergence action against POLCO in % ([16]; dosage 320 g/ha) | Pre-emergence action against AVEFA in % [17] | Pre-emergence action against AMARE in % ([18]; 80 g/ha) | Pre-emergence action against MATIN in % ([19]; dosage 320 g/ha) | Post-emergence action against VERPE in % ([21]; 320 g/ha, VERPE) | Pre-emergence action against VIOTR in % ([22]; dosage 80 g/ha)

CCOC(=O)COc1nn(-c2nc(F)ccc2F)c(-c2cncc(F)c2)c1Br [Example I-193]
10%: Post-emergence action against ORYSA in % [1]
90%: Post-emergence action against LOLRI in % ([2]; dosage 320 g/ha) | Post-emergence action against PHBPU in % ([3]; dosage 80 g/ha) | Post-emergence action against ALOMY in % ([5]; 80 g/ha) | Pre-emergence action against VERPE in % ([7]; dosage 320 g/ha) | Pre-emergence action against ALOMY ([8]; 320 g/ha) | Post-emergence action against SETVI in % [10] | Post-emergence action against AVEFA in % ([11]; 320 g/ha) | Post-emergence action against VIOTR in % ([12]; 320 g/ha) | Post-emergence action against ECHCG in % ([13]; dosage 80 g/ha) | Post-emergence action against ECHCG in % ([13]; dosage 320 g/ha) | Pre-emergence action against PHBPU in % ([14]; dosage 320 g/ha) | Pre-emergence action against LOLRI in % ([15]; dosage 320 g/ha) | Pre-emergence action against AVEFA in % [17] | Pre-emergence action against MATIN in % ([19]; dosage 80 g/ha) | Pre-emergence action against MATIN in % ([19]; dosage 320 g/ha) | Pre-emergence action against ECHCG in % ([24]; dosage 80 g/ha)
100%: Post-emergence action against PHBPU in % ([3]; dosage 320 g/ha) | Post-emergence action against ALOMY in % ([5]; 320 g/ha) | Pre-emergence action against POLCO in % ([16]; dosage 320 g/ha) | Pre-emergence action against AMARE in % ([18]; 320 g/ha) | Pre-emergence action against VIOTR in % ([22]; 320 g/ha, Viola tricolor) | Pre-emergence action against VIOTR in % ([22]; dosage 80 g/ha) | Pre-emergence action against SETVI in % ([23]; dosage 80 g/ha) | Pre-emergence action against SETVI in % ([23]; dosage 320 g/ha) | Pre-emergence action against ECHCG in % ([24]; dosage 320 g/ha)
20%: Pre-emergence action against ORYSA in % [9]
80%: Post-emergence action against AMARE in % ([4]; 80 g/ha, visual rating about 3 weeks after treatment vs untreated controls (100% = plants have died, 0% = like control plants)) | Post-emergence action against AMARE in % [4, 27] | Post-emergence action against ABUTH in % ([6]; 80 g/ha) | Post-emergence action against ABUTH in % ([6]; 320 g/ha) | Pre-emergence action against VERPE in % ([7]; dosage 80 g/ha) | Post-emergence action against AVEFA in % ([11]; 80 g/ha) | Post-emergence action against VIOTR in % ([12]; 80 g/ha) | Pre-emergence action against PHBPU in % ([14]; dosage 80 g/ha) | Pre-emergence action against POLCO in % ([16]; dosage 80 g/ha) | Pre-emergence action against AMARE in % ([18]; 80 g/ha) | Post-emergence action against MATIN in % [25] | Post-emergence action against POLCO in % ([20]; dosage 80 g/ha) | Post-emergence action against POLCO in % ([20]; dosage 320 g/ha) | Post-emergence action against VERPE in % ([21]; 320 g/ha, VERPE) | Post-emergence action against VERPE in % ([21]; dosage 80 g/ha)

O=C(O)COc1nn(-c2nc(F)ccc2F)c(-c2ccc(F)nc2)c1Cl [Example I-337]
100%: Pre-emergence action against LOLRI in % ([15]; dosage 320 g/ha) | Pre-emergence action against VIOTR in % ([22]; 320 g/ha, Viola tricolor) | Pre-emergence action against SETVI in % ([23]; dosage 320 g/ha)
90%: Post-emergence action against PHBPU in % ([3]; dosage 80 g/ha) | Post-emergence action against PHBPU in % ([3]; dosage 320 g/ha) | Post-emergence action against ALOMY in % ([5]; 80 g/ha) | Post-emergence action against ALOMY in % ([5]; 320 g/ha) | Pre-emergence action against VERPE in % ([7]; dosage 80 g/ha) | Pre-emergence action against VERPE in % ([7]; dosage 320 g/ha) | Pre-emergence action against ALOMY ([8]; 320 g/ha) | Post-emergence action against ECHCG in % ([13]; dosage 320 g/ha) | Pre-emergence action against POLCO in % ([16]; dosage 320 g/ha) | Pre-emergence action against AVEFA in % [17] | Pre-emergence action against AMARE in % ([18]; 80 g/ha) | Pre-emergence action against AMARE in % ([18]; 320 g/ha) | Pre-emergence action against MATIN in % ([19]; dosage 320 g/ha) | Pre-emergence action against SETVI in % ([23]; dosage 80 g/ha) | Pre-emergence action against ECHCG in % ([24]; dosage 320 g/ha)
10%: Post-emergence action against ZEAMX in % [26]
20%: Post-emergence action against ORYSA in % [1] | Pre-emergence action against ORYSA in % [9]
80%: Post-emergence action against AMARE in % [4, 27] | Post-emergence action against ABUTH in % ([6]; 80 g/ha) | Post-emergence action against ABUTH in % ([6]; 320 g/ha) | Pre-emergence action against ALOMY ([8]; 80 g/ha) | Post-emergence action against SETVI in % [10] | Post-emergence action against AVEFA in % ([11]; 320 g/ha) | Post-emergence action against VIOTR in % ([12]; 80 g/ha) | Post-emergence action against VIOTR in % ([12]; 320 g/ha) | Post-emergence action against ECHCG in % ([13]; dosage 80 g/ha) | Pre-emergence action against PHBPU in % ([14]; dosage 80 g/ha) | Pre-emergence action against PHBPU in % ([14]; dosage 320 g/ha) | Pre-emergence action against POLCO in % ([16]; dosage 80 g/ha) | Post-emergence action against POLCO in % ([20]; dosage 80 g/ha) | Post-emergence action against POLCO in % ([20]; dosage 320 g/ha) | Post-emergence action against VERPE in % ([21]; 320 g/ha, VERPE) | Post-emergence action against VERPE in % ([21]; dosage 80 g/ha) | Pre-emergence action against VIOTR in % ([22]; dosage 80 g/ha) | Pre-emergence action against ECHCG in % ([24]; dosage 80 g/ha)

— US20240041042A1, “1-(PYRIDYL)-5-AZINYLPYRAZOLE DERIVATIVES, AND THEIR USE FOR CONTROL OF UNDESIRED PLANT GROWTH” (Bayer Aktiengesellschaft, priority 2020, published 2024)
